In patent publication US10787416B1, “Crystals of intermediate for benzindene prostaglandins and methods for preparation thereof” (CHIROGATE INTERNATIONAL INC., priority 2020, dated 2020):

How the values were obtained:
[1] = Crystalline form conversion by grinding; type: physicochemical; conditions: grinding at room temperature for about 10 minutes
[2] = Storage stability of the crystalline forms at room temperature; type: physicochemical; conditions: room temperature for six months

| crystalline form transformation on grinding [1] | Compound | stability (other crystalline forms or degraded products of impurities) [2] |
| --- | --- | --- |
| convert to Form I crystal | CCCCC[C@H](O)CC[C@@H]1[C@H]2Cc3cccc(OCC#N)c3C[C@H]2C[C@H]1O [Form II, 2-(((1R,2R,3aS,9aS)-2-hydroxy-1-((S)-3-hydroxyoctyl)-2,3,3a,4,9,9a-hexahydro-1H-cyclopenta[b]naphthalen-5-yl)oxy)acetonitrile] | – |
| – | CCCCC[C@H](O)CC[C@@H]1[C@H]2Cc3cccc(OCC#N)c3C[C@H]2C[C@H]1O [Form I, 2-(((1R,2R,3aS,9aS)-2-hydroxy-1-((S)-3-hydroxyoctyl)-2,3,3a,4,9,9a-hexahydro-1H-cyclopenta[b]naphthalen-5-yl)oxy)acetonitrile] | no other crystalline forms or degraded products of impurities |
